Numbers after ± are expanded uncertainties.
Test: molar heat capacity at constant pressure; xn = mol fraction of the nth substance listed
Details: 101 kPa, Small sample (50 mg) DSC

CC(O)CN (stereo unspecified) [1-amino-2-propanol] + O
Details	molar heat capacity at constant pressure [J/K/mol]
155.68 K, Glass, x1 = 0.15	35.88 ± 7.2
155.68 K, Glass, x1 = 0.16	37.74 ± 7.6
155.68 K, Glass, x1 = 0.19	36.94 ± 7.5
155.68 K, Glass, x1 = 0.26	40.42 ± 8.2
155.84 K, Glass, x1 = 0.68	59.11 ± 12
160.38 K, Glass, x1 = 0.16	40.45 ± 8.1
160.38 K, Glass, x1 = 0.19	38.97 ± 7.8
160.38 K, Glass, x1 = 0.26	42.39 ± 8.5
160.4 K, Glass, x1 = 0.15	39.07 ± 7.7
160.41 K, Glass, x1 = 0.19	35.79 ± 1.4
160.41 K, Glass, x1 = 0.26	41.07 ± 1.6
160.54 K, Glass, x1 = 0.68	60.82 ± 12
160.55 K, Glass, x1 = 0.15	35.88 ± 1.6
160.56 K, Glass, x1 = 0.16	34.48 ± 1.4
160.57 K, Glass, x1 = 0.68	63.09 ± 2.8
163.7 K, Glass, x1 = 0.19	36.66 ± 1.4
163.7 K, Glass, x1 = 0.26	42.39 ± 2
163.84 K, Glass, x1 = 0.15	37.74 ± 1.6
163.85 K, Glass, x1 = 0.16	35.57 ± 1.6
163.85 K, Glass, x1 = 0.68	64.8 ± 2.8
165.08 K, Glass, x1 = 0.19	42.72 ± 8.7
165.08 K, Glass, x1 = 0.26	45.68 ± 9.2
165.25 K, Glass, x1 = 0.68	64.8 ± 13
170.29 K, Glass, x1 = 0.19	40.7 ± 1.7
170.3 K, Glass, x1 = 0.26	46 ± 2
170.45 K, Glass, x1 = 0.68	68.21 ± 2.8
173.75 K, Glass, x1 = 0.68	73.89 ± 3.4
183.93 K, Liquid, x1 = 0.26	85.44 ± 17
184.09 K, Liquid, x1 = 0.68	124.48 ± 25
188.66 K, Liquid, x1 = 0.26	85.11 ± 17
188.82 K, Liquid, x1 = 0.68	125.62 ± 25
190.11 K, Liquid, x1 = 0.19	83.13 ± 3.5
190.11 K, Liquid, x1 = 0.26	88.06 ± 3.6
190.26 K, Liquid, x1 = 0.15	76.81 ± 3.2
190.26 K, Liquid, x1 = 0.68	135.28 ± 5.7
190.27 K, Liquid, x1 = 0.16	77.92 ± 3.3
193.38 K, Liquid, x1 = 0.26	84.78 ± 17
193.42 K, Liquid, x1 = 0.19	81.97 ± 3.5
193.42 K, Liquid, x1 = 0.26	87.74 ± 3.6
193.54 K, Liquid, x1 = 0.68	126.75 ± 26
193.57 K, Liquid, x1 = 0.15	76.28 ± 3.2
193.58 K, Liquid, x1 = 0.16	77.11 ± 3.3
193.58 K, Liquid, x1 = 0.68	135.28 ± 5.7
198.11 K, Liquid, x1 = 0.16	79.01 ± 16
198.11 K, Liquid, x1 = 0.26	84.78 ± 17
198.13 K, Liquid, x1 = 0.15	73.89 ± 15
198.27 K, Liquid, x1 = 0.68	126.75 ± 26
200.05 K, Liquid, x1 = 0.19	80.53 ± 3.5
200.05 K, Liquid, x1 = 0.26	87.74 ± 3.6
200.19 K, Liquid, x1 = 0.15	76.02 ± 3.2
200.19 K, Liquid, x1 = 0.68	136.41 ± 5.7
200.2 K, Liquid, x1 = 0.16	76.29 ± 3.3
202.84 K, Liquid, x1 = 0.19	80.53 ± 16
202.84 K, Liquid, x1 = 0.26	85.44 ± 17
202.85 K, Liquid, x1 = 0.16	79.28 ± 16
202.87 K, Liquid, x1 = 0.15	74.69 ± 15
203 K, Liquid, x1 = 0.68	126.75 ± 26
203.35 K, Liquid, x1 = 0.19	80.24 ± 3.5
203.36 K, Liquid, x1 = 0.26	88.06 ± 3.6
203.5 K, Liquid, x1 = 0.15	75.75 ± 3.2
203.5 K, Liquid, x1 = 0.68	136.98 ± 5.7
203.51 K, Liquid, x1 = 0.16	76.29 ± 3.3
207.57 K, Liquid, x1 = 0.19	80.82 ± 16
207.57 K, Liquid, x1 = 0.26	86.42 ± 17
207.58 K, Liquid, x1 = 0.16	79.82 ± 16
207.6 K, Liquid, x1 = 0.15	75.49 ± 15

Reference: the NIST ThermoML archive (doi:10.1016/j.tca.2015.02.020)
